Assay results: PubChem BioAssay (NCI)
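Interpolation was linear, between the two tested concentrations surrounding the appropriate level; five concentrations were tested over 48 hours in 96-well plates. Definition used: TGI = concentration required for complete inhibition of growth.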

How the values were obtained:
Test in all cases: DTP human tumour cell line panel, 48 h
[1] = test system: NCI-H23 lung
[2] = test system: MALME-3M melanoma
[3] = test system: HT29 colon
[4] = test system: M19-MEL melanoma
[5] = test system: SK-MEL-5 melanoma
[6] = test system: SF-268 CNS
[7] = test system: NCI-H460 lung
[8] = test system: OVCAR-8 ovarian
[9] = test system: UO-31 renal
[10] = test system: KM20L2 colon
[11] = test system: XF 498 CNS
[12] = test system: DMS 114 small cell lung
[13] = test system: ACHN renal
[14] = test system: SR leukemia
[15] = test system: LOX IMVI melanoma
[16] = test system: SN12C renal
[17] = test system: NCI-H226 lung
[18] = test system: A549 NSCLC
[19] = test system: HCT-15 colon
[20] = test system: M14 melanoma
[21] = test system: U251 CNS
[22] = test system: CCRF-CEM leukemia
[23] = test system: IGROV1 ovarian
[24] = test system: SK-MEL-28 melanoma
[25] = test system: HCT-116 colon
[26] = test system: SF-295 CNS
[27] = test system: OVCAR-3 ovarian
[28] = test system: SK-OV-3 ovarian
[29] = test system: DMS 273 small cell lung
[30] = test system: RPMI-8226 leukemia
[31] = test system: K-562 leukemia
[32] = test system: EKVX NSCLC
[33] = test system: COLO 205 colon
[34] = test system: HCC-2998 colon
[35] = test system: SF-539 CNS
[36] = test system: 786-0 renal
[37] = test system: LXFL 529 NSCLC
[38] = test system: SW-620 colon
[39] = test system: HOP-62 NSCLC
[40] = test system: NCI-H522 lung
[41] = test system: SNB-19 CNS
[42] = test system: MOLT-4 leukemia
[43] = test system: KM12 colon
[44] = test system: HL-60(TB) leukemia
[45] = test system: UACC-257 melanoma
[46] = test system: RXF 393 renal
[47] = test system: UACC-62 melanoma
[48] = test system: SNB-75 CNS
[49] = test system: TK-10 renal
[50] = test system: OVCAR-5 ovarian
[51] = test system: SK-MEL-2 melanoma
[52] = test system: HOP-92 NSCLC
[53] = test system: SNB-78 CNS
[54] = test system: HOP-18 NSCLC

Measured: TGI

CCCCc1c2c(nc3c1CCCC3=O)CCCC2
65.6 µM: [17]
98.4 µM: [2]
not listed: [45] | [46] | [47] | [48] | [49] | [50] | [51] | [52] | [53] | [54]
> 100 µM: all other assays above

O=c1[nH]c(-c2ccc([N+](=O)[O-])cc2)nc2ccc(Cl)cc12
84.2 µM: [52]
38.8 µM: [31]
not listed: [7] | [11] | [12] | [14] | [15] | [17] | [20] | [22] | [27] | [39] | [40] | [44] | [54]
> 100 µM: all other assays above

CC(=O)Oc1cc(OC(C)=O)c2c(c1)OC(c1ccc(OC(C)=O)c(OC(C)=O)c1)CC2=O (configuration not stated)
49 µM: [14]
29.7 µM: [44]
> 100 µM: [5] | [9] | [16] | [49] | [18] | [22] | [25] | [26] | [28] | [29] | [33] | [34] | [38]
95.8 µM: [54]
69.4 µM: [52]
